For series [1], the system named is subjects with advanced hematologic malignancies undergoing myeloablative allogeneic hematopoietic cell transplantation. The experiment in a line: Chronic GVHD, per NIH consensus criteria. The class given is in vivo, human. Conditions: Example 3, serum tacrolimus trough level higher vs lower than 4 ng/ml. The protocol: Chronic GVHD was diagnosed, staged, and graded per the International NIH Chronic GVHD Diagnosis and Staging Consensus Working Group criteria.
Chronic GVHD: As chronic GVHD (cGVHD) is associated with significant morbidity and with decreased survival, reducing the severity or incidence of cGVHD has the potential to greatly benefit graft recipients. Chronic GVHD was diagnosed per 2014 International NIH Chronic GVHD Diagnosis and Staging Consensus Working Group criteria.
Analysis was conducted using a cutoff of 365 days (i.e., cGVHD events that occur after Day ^+365 were not included). […] Additionally, several subjects in the study group have undergone greater than 2.5 years of follow-up with no cGVHD symptoms reported.

Series [2] has the same test system. The experiment in a line: GVHD and relapse-free survival (GRFS). The note with it: Example 3, tacrolimus-only relative to sirolimus-only patients. The series is classed as in vivo, human. An excerpt:
GVHD and relapse-free survival is a composite readout that can refer to survival without relapse or Grade ≥3 acute or extensive chronic GVHD. At the time of reporting, the percent of GVHD-free and relapse-free survival to one-year post-transplant was 74% for the study group, compared to 34% for the SOC cohort, as shown in FIG. 4F. The difference was statistically significant (p=0.0001 by log-rank test).

Series [3] has the same test system. The experiment in a line: Overall survival. The series is classed as in vivo, human. Conditions: Example 3, tacrolimus-only relative to sirolimus-only patients. The text has this: Overall survival: OS was defined as the time from the date of transplant to the date of death from any cause or, for surviving patients, to the date of last follow-up. […] The difference was statistically significant (p=0.0242 by log-rank test).

Series [4] shares this test system. Kind of series: Disease relapse / relapse-free survival / disease status after therapy. The series is classed as in vivo, human. Conditions: Example 3, tacrolimus-only relative to sirolimus-only patients.
Description: Incidence of disease relapse: For acute leukemias, relapse was defined as any of the following (MRD^+ alone was insufficient): (i) ≥5% blasts in the bone marrow or peripheral blood; or (ii) Reappearance of pre-transplant cytogenetic abnormality; or (iii) new evidence or redevelopment of extramedullary disease. For MDS, relapse was defined as any of the following: (i) satisfying criteria for evolution into acute leukemia; (ii) reappearance of pre-transplant morphologic abnormalities, detected in bone marrow specimens; or, (iii) reappearance of pre-transplant cytogenetic abnormality in at least one metaphase on each of two separate consecutive examinations at least one month apart, regardless of the number of metaphases analyzed.
Subjects in the study were first evaluated for relapse on day ^+90 post-transplant.
Series [5] shares this test system. Conditions: in vivo.
Description: Acute GVHD was staged and graded per MAGIC Standardization criteria.
Acute GVHD was staged and graded per Mount Sinai Acute GvHD International Consortium (MAGIC) Standardization criteria.
Series [6] has as its system Patients with hematologic malignancies. Kind of series: Relapse, non-relapse mortality, relapse-free survival, GRFS and overall survival after transplant. The note with it: with Orca-T; relapse-free survival through 1 year; FIG. 14. The series is classed as in vivo, human. An excerpt: FIGS. 1A-B illustrate the schematics of the transplant according to the methods described herein (identified as High-Precision Orca-T or Orca-T) and the differences compared to a standard of care (SOC) cohort (identified as Conventional Transplant or SOC).

On to `C=CC[C@@H]1/C=C(\C)C[C@H](C)C[C@H](OC)[C@H]2O[C@@](O)(C(=O)C(=O)N3CCCC[C@H]3C(=O)O[C@H](/C(C)=C/[C@@H]3CC[C@@H](O)[C@H](OC)C3)[C@H](C)[C@@H](O)CC1=O)[C@H](C)C[C@@H]2OC` [tacrolimus], for which the “chronic GVHD rates” value in series [1] is “improvements”. Further, the GRFS rates entry in series [2] is reported as “improved”. Moreover, in series [3], the overall survival rates result is “improved” and the “survival (FIG. 7E)” value was “improved”. Also, the relapse rates entry in series [4] is “improved”. Further, the GVHD rates entry in series [5] is “higher”.

On to `S=P(N1CC1)(N1CC1)N1CC1` [thiotepa], for which, in series [6], the “effect of addition of thiotepa to busulfan-based conditioning regimens on relapse and non-relapse mortality” value was “decreases relapse without increasing non-relapse mortality”.
